Results published in ChEMBL document CHEMBL1201862, “PubChem BioAssay data set” (2004).
Active and inactive are the calls of the source. No rule for the calls is given here.

What was measured:
[1] = biological target: T1, Nuclear receptor subfamily 0 group B member 1 (Homo sapiens, UniProt P51843); experiment: Luminescence-based cell-based high throughput dose response assay for inhibitors of the orphan nuclear receptor subfamily 0, group B, member 1 (DAX1; NR0B1). [Related pubchem assays (depositor defined):AID504766, AID504790]; format: functional
T1 sequence (P51843 whole entry): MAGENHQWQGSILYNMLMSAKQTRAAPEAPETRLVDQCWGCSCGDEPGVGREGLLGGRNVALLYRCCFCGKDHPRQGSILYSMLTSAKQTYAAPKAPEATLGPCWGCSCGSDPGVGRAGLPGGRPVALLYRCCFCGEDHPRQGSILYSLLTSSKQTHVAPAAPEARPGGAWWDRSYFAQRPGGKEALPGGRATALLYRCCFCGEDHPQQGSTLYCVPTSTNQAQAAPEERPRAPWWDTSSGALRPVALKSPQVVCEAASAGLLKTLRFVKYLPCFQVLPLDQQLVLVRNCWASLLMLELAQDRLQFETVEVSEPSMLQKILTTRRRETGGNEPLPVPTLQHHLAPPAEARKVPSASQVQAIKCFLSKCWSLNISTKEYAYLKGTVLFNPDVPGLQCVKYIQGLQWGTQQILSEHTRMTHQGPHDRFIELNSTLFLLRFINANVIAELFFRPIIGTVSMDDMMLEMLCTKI

[2] = system: HEK293; experiment: cells; format: functional, cell-based; settings: Homo sapiens

Row | Compound | IC50 [1] | IC50 [2]
1 | O=C(/C=C/c1ccc2c(c1)OCCO2)c1ccc(O)cc1 | > 67.6 µM (inactive) | > 2.5 µM (active)
2 | COCCCNC(=O)c1ccc(CN2CCc3ccccc3C2)cc1 | > 67.5 µM (inactive) | > 67.5 µM (inactive)
